Measurements published in US5455222A, “1-substituted-5-thiomethylthiocyanato-1H-tetrazoles, compositions containing them and their use as antimicrobial and marine antifouling agents” (The Dow Chemical Company, priority 1994, dated 1995).
In brackets after ≈: the same amount, converted by molar mass.

How the values were obtained:
Bacillus subtilis (Bs) = assay: Minimum inhibitory concentration (MIC), bacteria in nutrient agar; assay type: cell-based, Bacillus subtilis ATCC 8473; conditions: 48 hours
Method: (§1) The minimum inhibitory concentration (MIC) for the compounds listed in Table I is determined for 9 bacteria, using nutrient agar, and 7 yeast and fungi, using malt yeast agar. A one percent solution of the test compound is prepared in a mixture of acetone and water.
(§2) Nutrient agar is prepared at pH 6.8, representing a neutral medium, and at pH 8.2, representing an alkaline medium. The nutrient agars are prepared by adding 23 g of nutrient agar to one liter of deionized water. In addition, the alkaline medium is prepared by adjusting a 0.04M solution of N-[tris-(hydroxymethyl)methyl]glycine buffered deionized water with concentrated sodium hydroxide to a pH of 8.5.
(§3) The test tubes containing the agar are cooled in a water bath until the temperature of the agar is 48° C. Then, an appropriate amount of the one percent solution of the test compound is added (except in the controls where no compound is added) to the respective test tubes so that the final concentrations are 500, 250, 100, 50, 25, 10, 5, 2.5, 1.0 and zero parts per million of the test compound in the agar, thus having a known concentration of test compound dispersed therein. The contents of the test tubes are then transferred to respective petri plates. After drying for 24 hours, the petri plates containing nutrient agar are inoculated with bacteria and those containing malt yeast agar are inoculated with yeast and fungi.
(§4) The inoculation with bacteria is accomplished by using the following procedure. Twenty-four hour-cultures of each of the bacteria are prepared by incubating the respective bacteria in tubes containing nutrient broth for 24 hours at 30° C. in a shaker. Dilutions of each of the 24 hour-cultures are made so that nine separate suspensions (one for each of the nine test bacteria) are made, each containing 10^8 colony forming units (CFU) per mL of suspension of a particular bacteria. Aliquots of 0.3 mL of each of the bacterial suspensions are used to fill the individual wells of Steer's Replicator. For each microbial suspension, 0.3 mL was used to fill three wells (i.e., three wells of 0.3 mL each) so that for the nine different bacteria, 27 wells are filled. The Steer's Replicator is then used to inoculate both the neutral and alkaline pH nutrient agar petri plates.
(§5) The inoculated petri plates are incubated at 30° C. for 48 hours and then read to determine if the test compound which is incorporated into the agar prevented growth of the respective bacteria.
(§6) Table II lists the bacteria, yeast and fungi used in the MIC test described above along with their respective American Type Culture Collection (ATCC) identification numbers.
(§7) In Tables III and IV, the MIC values of the compounds described in Table I as compared to the MIC of a standard commercial preservative (with 1-(3-chloroallyl)-3,5,7-triaza-1-azoniaadamantane chloride as the active agent and referred to in Tables III and IV as "STANDARD I") are set forth for the bacteria organisms and yeast/fungi organisms which are listed in Table II.

[1] = tested on: Enterobacter aerogenes (Ea); assay: as above; assay type: cell-based, Enterobacter aerogenes ATCC 13048; conditions: Klebsiella aerogenes, 48 hours
Method: as §1, §2, §3, §4, §5, §6, §7

Escherichia coli (Ec) = assay: as above; assay type: cell-based, Escherichia coli ATCC 11229; conditions: 48 hours
Method: as §1, §2, §3, §4, §5, §6, §7

[2] = tested on: Klebsiella pneumoniae (Kp); assay: as above; assay type: cell-based, Klebsiella pneumoniae ATCC 8308; conditions: 48 hours
Method: as §1, §2, §3, §4, §5, §6, §7

Proteus vulgaris (Pv) = assay: as above; assay type: cell-based, Proteus vulgaris ATCC 881; conditions: 48 hours
Method: as §1, §2, §3, §4, §5, §6, §7

[3] = tested on: Pseudomonas aeruginosa (PRD-10); assay: as above; assay type: cell-based, Pseudomonas aeruginosa ATCC 15442; conditions: 48 hours
Method: as §1, §2, §3, §4, §5, §6, §7

[4] = tested on: Pseudomonas aeruginosa (Pa); assay: as above; assay type: cell-based, Pseudomonas aeruginosa ATCC 10145; conditions: 48 hours
Method: as §1, §2, §3, §4, §5, §6, §7

[5] = tested on: Salmonella choleraesuis (Sc); assay: as above; assay type: cell-based, Salmonella choleraesuis ATCC 10708; conditions: Salmonella enterica, 48 hours
Method: as §1, §2, §3, §4, §5, §6, §7

[6] = tested on: Staphylococcus aureus (Sa); assay: as above; assay type: cell-based, Staphylococcus aureus ATCC 6538; conditions: 48 hours
Method: as §1, §2, §3, §4, §5, §6, §7

Aspergillus niger (An) = assay: Minimum inhibitory concentration (MIC), yeast/fungi in malt yeast agar; assay type: cell-based, Aspergillus niger ATCC 16404; conditions: 30° C., 72 hours for fungi
Method: as §1
(§8) Malt yeast agar is prepared by adding 3 g yeast extract and 45 g malt agar per liter of deionized water. The specific agar is dispensed in 30 mL aliquots into 25×200 mm test tubes, capped and autoclaved for 15 minutes at 115° C.
as §3
(§9) The inoculation with the yeast and fungi is accomplished as follows. Cultures of yeast and fungi are incubated for seven days on malt yeast agar at 30° C. These cultures are used to prepare suspensions by the following procedure. A suspension of each organism is prepared by adding 10 mL of sterile saline and 10 microliters of octylphenoxy polyethoxy ethanol to the agar slant of yeast or fungi. The sterile saline/octylphenoxy polyethoxy ethanol solution is then agitated with a sterile swab to suspend the microorganism grown on the slant. Each resulting suspension is diluted into sterile saline (1 part suspension to 9 parts sterile saline). Aliquots of these dilutions are placed in individual wells of Steer's Replicator and petri plates inoculated as previously described. The petri plates are incubated at 30° C. and read after 48 hours for yeast and 72 hours for fungi.
as §6, §7

Candida albicans (Ca) = assay: as above; assay type: cell-based, Candida albicans ATCC 10231; conditions: 30° C., 48 hours for yeast
Method: as §1, §8, §3, §9, §6, §7

[7] = tested on: Penicillium chrysogenum (Pc); assay: as above; assay type: cell-based, Penicillium chrysogenum ATCC 9480; conditions: 30° C., 72 hours for fungi
Method: as §1, §8, §3, §9, §6, §7

[8] = tested on: Saccharomyces cerevisiae (Sc); assay: as above; assay type: cell-based, Saccharomyces cerevisiae ATCC 4105; conditions: 30° C., 48 hours for yeast
Method: as §1, §8, §3, §9, §6, §7

Trichoderma viride (Tv) = assay: as above; assay type: cell-based, Trichoderma viride ATCC 8678; conditions: 30° C., 72 hours for fungi
Method: as §1, §8, §3, §9, §6, §7

[9] = tested on: Aureobasidium pullulan (Ap); assay: as above; assay type: cell-based, Aureobasidium pullulan ATCC 16622; conditions: 30° C., read after 48 hours for yeast and 72 hours for fungi
Method: as §1, §8, §3, §9, §6, §7

Fusarium oxysporum (Fo) = assay: as above; assay type: cell-based, Fusarium oxysporum ATCC 48112; conditions: 30° C., 72 hours for fungi
Method: as §1, §8, §3, §9, §6, §7

marine organisms = assay: Marine antifouling activity, coated test panels exposed to marine environment; conditions: 6 weeks, scale 10 (completely free of growth) to 0 (completely covered)
Method: Test panels are prepared from clear, rigid polyvinyl chloride film that is 0.381×10^-3 m thick and has one textured surface. The test panels are 0.1524 m by 0.1524 m squares that have 0.00635 m holes punched at corners on 0.127 m centers. A 0.102 square template, with a 0.067 m diameter hole at the center, is attached to the center of the textured surface of the test panels.
A candidate marine antifoulant compound (1.0 g) is stirred into a resinous latex binder (9.0 g). A portion of the compound/binder mixture (1.5 g) is added to the center of the test panel and uniformly spread over the circular area inside the template.
Water is added dropwise as needed to properly spread the compound/binder mixture. The template prevents the compound/binder mixture from spreading beyond the uncovered area. […] The template is then removed. The test panel is then allowed to dry for 8 to 12 hours at room temperature.
Two test panels are prepared for each candidate marine antifoulant compound. Two control test panels are also prepared by only treating with the resinous latex binder. One test panel of each candidate marine […] compound is attached over a white background to the topside of an exposure support apparatus. The second test panel is attached over a black background to the underside of the exposure support apparatus. The exposure support apparatus is placed horizontally 0.0254 m under a marine surface with the white background topside facing up.
After being removed from the exposure support apparatus, each test panel is inspected and rated for marine organism growth on both the treated and untreated areas of the test panel. The marine organisms present on the treated and untreated areas are noted. The presence of algae spores and bacterial slime are noted but not included in rating each test panel. The test panels are rated on a scale from 10 (representing completely free of marine organism growth) to 0 (representing completely covered with marine organism growth).
In addition, test panels were prepared using tributyl tin oxide, a known marine antifouling compound.

For N#CSCSc1nnnn1-c1ccccc1 [Example I, 1-Phenyl-5-thiomethylthiocyanato-1H-tetrazole], the MIC (Bacillus subtilis (Bs); nutrient agar pH 6.8, 30° C.) was < 10 µg/mL, the MIC (Bacillus subtilis (Bs); nutrient agar pH 8.2, 30° C.) was 50 µg/mL (≈ 201 µM) and the MIC ([1]; nutrient agar pH 6.8, 30° C.) was 250 µg/mL (≈ 1000 µM). For the same compound, the MIC ([1]; nutrient agar pH 8.2, 30° C.) was 500 µg/mL (≈ 2010 µM), the MIC (Escherichia coli (Ec); nutrient agar pH 6.8, 30° C.) was 50 µg/mL (≈ 201 µM) and the MIC (Escherichia coli (Ec); nutrient agar pH 8.2, 30° C.) was 250 µg/mL (≈ 1000 µM). For the same compound, the MIC ([2]; nutrient agar pH 6.8, 30° C.) was 100 µg/mL (≈ 401 µM), the MIC ([2]; nutrient agar pH 8.2, 30° C.) was 100 µg/mL (≈ 401 µM) and the MIC (Proteus vulgaris (Pv); nutrient agar pH 6.8, 30° C.) was 25 µg/mL (≈ 100 µM). It also gave an MIC (Proteus vulgaris (Pv); nutrient agar pH 8.2, 30° C.) of 100 µg/mL (≈ 401 µM), an MIC ([3]; nutrient agar pH 6.8, 30° C.) of 250 µg/mL (≈ 1000 µM) and an MIC ([3]; nutrient agar pH 8.2, 30° C.) of 250 µg/mL (≈ 1000 µM). For the same compound, the MIC ([4]; nutrient agar pH 6.8, 30° C.) was 100 µg/mL (≈ 401 µM), the MIC ([4]; nutrient agar pH 8.2, 30° C.) was 100 µg/mL (≈ 401 µM) and the MIC ([5]; nutrient agar pH 6.8, 30° C.) was 100 µg/mL (≈ 401 µM). For the same compound, the MIC ([5]; nutrient agar pH 8.2, 30° C.) was 250 µg/mL (≈ 1000 µM), the MIC ([6]; nutrient agar pH 6.8, 30° C.) was 25 µg/mL (≈ 100 µM) and the MIC ([6]; nutrient agar pH 8.2, 30° C.) was 50 µg/mL (≈ 201 µM). It also gave an MIC (Aspergillus niger (An)) of 5 µg/mL (≈ 20.1 µM), an MIC (Candida albicans (Ca)) of 25 µg/mL (≈ 100 µM) and an MIC [7] of 2.5 µg/mL (≈ 10 µM). For the same compound, the MIC [8] was 5 µg/mL (≈ 20.1 µM), the MIC (Trichoderma viride (Tv)) was 25 µg/mL (≈ 100 µM) and the MIC [9] was 2.5 µg/mL (≈ 10 µM). The MIC (Fusarium oxysporum (Fo)) was 10 µg/mL (≈ 40.1 µM), the “Marine Antifouling Rating, 6 Week Test, Bottom Panel” value (marine organisms; bottom panel (black background)) was 9 and the “Marine Antifouling Rating, 6 Week Test, Top Panel” value (marine organisms; top panel (white background)) was 9.
